From PMC10638397, “Engineering sulfonate group donor regeneration systems to boost biosynthesis of sulfated compounds” (Nature Communications, 2023)

Experiments:
Type in all cases: biochemical
[1] = molecular target: T1, PPK2^s.e (Staphylococcus epidermidis, UniProt Q5HL47); assay: polyphosphate kinase assay, HPLC; conditions: polyP6, Mg2+, pH 7.5, 35 °C
T1 construct: gene SERP2140
T1 sequence (Q5HL47 1-474): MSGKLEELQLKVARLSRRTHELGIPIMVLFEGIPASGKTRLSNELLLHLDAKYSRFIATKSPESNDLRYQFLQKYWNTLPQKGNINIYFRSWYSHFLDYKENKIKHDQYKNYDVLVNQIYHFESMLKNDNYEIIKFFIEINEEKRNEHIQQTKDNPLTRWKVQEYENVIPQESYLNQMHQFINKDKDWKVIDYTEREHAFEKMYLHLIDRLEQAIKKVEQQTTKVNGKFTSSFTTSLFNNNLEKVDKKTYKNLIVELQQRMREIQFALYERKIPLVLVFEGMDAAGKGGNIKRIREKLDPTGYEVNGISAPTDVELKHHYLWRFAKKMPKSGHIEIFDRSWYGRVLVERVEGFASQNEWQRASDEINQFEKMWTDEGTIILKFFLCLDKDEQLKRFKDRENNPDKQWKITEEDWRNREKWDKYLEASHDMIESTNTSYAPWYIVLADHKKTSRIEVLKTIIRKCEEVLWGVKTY

[2] = tested on: T2, chondroitin 4-O-sulfotransferase (C4ST); assay: sulfotransferase kinetics, HPLC-MS; conditions: Mg2+, pH 7.5, 35 °C (general assay); acceptor not given
T2 construct: gene Chst11; recombinant
From the text: sulfotransferase kinetics, HPLC-MS on chondroitin 4-O-sulfotransferase (C4ST)

[3] = molecular target: T3, PPK2B^p.a (Pseudomonas aeruginosa, UniProt Q9I154); assay: polyphosphate kinase assay, HPLC; conditions: polyP6, Mg2+, pH 7.5, 35 °C
T3 construct: gene PA2428
T3 sequence (Q9I154 1-304): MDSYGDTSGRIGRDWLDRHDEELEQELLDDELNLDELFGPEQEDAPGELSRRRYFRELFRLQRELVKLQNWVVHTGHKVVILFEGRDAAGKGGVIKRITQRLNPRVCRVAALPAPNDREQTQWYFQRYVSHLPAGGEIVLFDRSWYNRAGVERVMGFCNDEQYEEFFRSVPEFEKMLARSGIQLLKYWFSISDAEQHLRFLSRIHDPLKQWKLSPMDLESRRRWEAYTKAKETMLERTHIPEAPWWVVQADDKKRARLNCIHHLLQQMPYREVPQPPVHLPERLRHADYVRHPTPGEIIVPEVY

[4] = molecular target: T4, PPK2^r.p (Ruegeria pomeroyi, UniProt Q5LX16); assay: polyphosphate kinase assay, HPLC; conditions: polyP6, Mg2+, pH 7.5, 35 °C
T4 construct: gene SPO0224
T4 sequence (Q5LX16 1-305): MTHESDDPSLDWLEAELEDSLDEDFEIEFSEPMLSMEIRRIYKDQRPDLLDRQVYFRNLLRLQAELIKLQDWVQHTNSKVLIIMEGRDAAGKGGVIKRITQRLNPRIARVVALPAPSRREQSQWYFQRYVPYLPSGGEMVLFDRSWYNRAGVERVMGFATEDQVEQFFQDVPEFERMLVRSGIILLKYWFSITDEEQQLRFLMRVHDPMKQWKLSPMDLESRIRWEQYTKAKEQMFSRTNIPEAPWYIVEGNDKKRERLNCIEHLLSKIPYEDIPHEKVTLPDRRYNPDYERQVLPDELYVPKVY

[5] = molecular target: T5, PPK2A^p.a (Pseudomonas aeruginosa, UniProt Q9I6Z1); assay: polyphosphate kinase assay, HPLC; conditions: polyP6, Mg2+, pH 7.5, 35 °C
T5 construct: gene ppk2
T5 sequence (Q9I6Z1 2-357): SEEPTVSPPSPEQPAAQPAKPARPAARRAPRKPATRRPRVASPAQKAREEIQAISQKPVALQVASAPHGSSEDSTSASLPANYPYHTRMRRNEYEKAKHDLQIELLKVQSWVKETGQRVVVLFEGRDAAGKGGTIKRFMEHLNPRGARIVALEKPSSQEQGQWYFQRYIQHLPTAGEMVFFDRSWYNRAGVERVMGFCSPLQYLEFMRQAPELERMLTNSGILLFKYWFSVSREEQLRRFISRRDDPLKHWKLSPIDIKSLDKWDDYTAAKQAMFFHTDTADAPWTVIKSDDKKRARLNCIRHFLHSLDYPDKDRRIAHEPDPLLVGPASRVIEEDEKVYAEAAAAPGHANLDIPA

[6] = molecular target: T6, PPK2^d.r (Meiothermus ruber, UniProt M9XB82); assay: polyphosphate kinase assay, HPLC; conditions: polyP6, Mg2+, pH 7.5, 35 °C
T6 construct: gene K649_10090
T6 sequence (M9XB82 1-267): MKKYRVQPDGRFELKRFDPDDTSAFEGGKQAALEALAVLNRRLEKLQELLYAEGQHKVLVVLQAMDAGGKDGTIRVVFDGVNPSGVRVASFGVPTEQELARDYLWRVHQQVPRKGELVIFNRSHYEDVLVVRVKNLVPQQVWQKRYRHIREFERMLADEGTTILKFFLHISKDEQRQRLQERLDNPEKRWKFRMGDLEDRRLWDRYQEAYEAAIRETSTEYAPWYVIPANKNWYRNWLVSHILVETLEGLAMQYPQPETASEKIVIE

[7] = molecular target: T7, PPK2C^p.a (Pseudomonas aeruginosa, UniProt Q9HYF1); assay: polyphosphate kinase assay, HPLC; conditions: polyP6, Mg2+, pH 7.5, 35 °C
T7 construct: gene PA3455
T7 sequence (Q9HYF1 1-496): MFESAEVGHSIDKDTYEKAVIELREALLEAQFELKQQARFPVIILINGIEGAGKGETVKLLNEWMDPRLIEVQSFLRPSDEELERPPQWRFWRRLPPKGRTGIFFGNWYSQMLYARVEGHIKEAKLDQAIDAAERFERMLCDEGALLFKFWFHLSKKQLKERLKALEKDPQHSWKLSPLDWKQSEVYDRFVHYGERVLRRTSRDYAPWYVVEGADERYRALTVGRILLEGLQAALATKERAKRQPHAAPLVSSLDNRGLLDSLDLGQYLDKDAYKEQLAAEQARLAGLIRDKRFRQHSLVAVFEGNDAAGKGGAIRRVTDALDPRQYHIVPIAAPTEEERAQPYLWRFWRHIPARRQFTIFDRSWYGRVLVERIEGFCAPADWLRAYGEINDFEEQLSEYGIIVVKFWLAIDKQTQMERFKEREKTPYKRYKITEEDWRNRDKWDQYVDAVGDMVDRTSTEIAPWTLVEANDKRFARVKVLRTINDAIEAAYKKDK

Structure (SMILES)	polyphosphate kinase assay, HPLC [1]	Km [2] [µM]	polyphosphate kinase assay, HPLC [3]	polyphosphate kinase assay, HPLC [4]	polyphosphate kinase assay, HPLC [5]	polyphosphate kinase assay, HPLC [6]	polyphosphate kinase assay, HPLC [7]
Nc1ncnc2c1ncn2[C@@H]1O[C@H](COP(=O)(O)OP(=O)(O)O)[C@@H](O)[C@H]1O [ADP]	all the other polyphosphate kinases exhibited both AMP and ADP phosphorylase activities	–	–	–	–	–	–
Nc1ncnc2c1ncn2[C@@H]1O[C@H](COP(=O)(O)OS(=O)(=O)O)[C@@H](OP(=O)(O)O)[C@H]1O [PAPS]	–	1270 ± 140	–	–	–	–	–
Nc1ncnc2c1ncn2[C@@H]1O[C@H](COP(=O)(O)O)[C@@H](O)[C@H]1O [AMP]	PPK2^s.e (from S. epidermidis) showed the highest enzymatic activity and preferentially utilized AMP	–	all the other polyphosphate kinases exhibited both AMP and ADP phosphorylase activities	all the other polyphosphate kinases exhibited both AMP and ADP phosphorylase activities	all the other polyphosphate kinases exhibited both AMP and ADP phosphorylase activities	all the other polyphosphate kinases exhibited both AMP and ADP phosphorylase activities	all the other polyphosphate kinases exhibited both AMP and ADP phosphorylase activities
